Results: patent publication US20250145592A1 (NICO Therapeutics, Inc., priority 2022, published 2025)
Where two headings read alike, the source gives them in different places.

Tested on: IL-1β secretion in THP-1 cells (NLRP3)
Test: IL-1β secretion assay in PMA-differentiated THP-1 cells stimulated with LPS and nigericin (ELISA readout)
Type: cell-based
Settings: IL-1β ELISA
Protocol: Compounds as provided herein were tested in the following assay. Cell culture medium employed contained RPMI 1640 medium (89%), FBS (10%), Pen/Strep (1%), and 2-mercaptoethanol (0.05 mM). Freezing medium was made up of 90% FBS and 10% DMSO. THP-1 cells were removed from the liquid nitrogen and placed into a 37° C. water bath to thaw, until signs of ice dissipated. The cells were then added to 9 mL of warm cell culture medium and centrifuged for 5 minutes at 1000 rpm. The supernatant was discarded, and the cells were resuspended in new cell culture medium. THP-1 cells were then split and cultured in the cell culture medium, being passaged every 2-3 days with the cell density will be maintained between 5×10^5 and 1.5×10^6 viable cells/mL.
To freeze, cells were resuspended with fresh freezing medium, adjusting the cell density to 5×10^6 cells/mL. The cell suspension was partitioned into 1 mL aliquots per vial, and the vials were transferred to a −80° C. freezer. After one day at −80° C., the cell vials were transferred to liquid nitrogen freezer for storage.
PMA was dissolved in DMSO to make a stock solution at 5 mg/ml and stored in 10 μl aliquots at −20° C. for single use. PMA is added to normal growth medium. LPS was diluted with 1 mL of water solution to provide a 1 mg/mL stock solution and stored in 15 μl aliquots at −20° C. for single use. Nigericin is diluted in ice cold 100% ethanol to 5 mg/ml (6.7 mM) and stored in 75 μL aliquots at −20° C. for single use. Serum-free media contains RPMI 1640 medium (99%), Pen/Strep (1%), and 2-mercaptoethanol (0.05 mM). The two control conditions used to qualify and normalize test compound dose-response curves were as follows: High Control=25 ng/mL LPS, […], 0.5% DMSO, Low Control=25 ng/mL, LPS, 0.5% DMSO.
THP-1 cells were diluted to provide a suspension at a concentration of 1.0×10^6 cells/mL with the total volume of suspension required to enable the desired number of assay plates. The growth media was supplemented with PMA (5 ng/mL final concentration) and the cells were incubated at 37° C. under a humidified atmosphere of 5% CO2 for 40 h.
All media was carefully aspirated from each culture flask. The cells were washed carefully with 1×DPBS. The cells were then briefly digested with trypsin LE for 5 minutes at 23° C. and immediately resuspended in cell growth media. After resuspension, the cells were centrifuged at 1000 rpm for 3 minutes and the supernatant was discarded. The cells were resuspended in DPBS and once again centrifuged at 1000 rpm for 5 minutes. The supernatant was discarded and the cell pellet was resuspended in serum-free media supplemented with LPS (25 ng/mL final concentration) to enable the distribution of 30K THP-1 cells within 45 μL of media into each well of 384-well PDL-coated plates. The 384-well plates were then incubated at 37° C. under a humidified atmosphere of 5% CO2 for 2 h. Following this period, test compounds were dispensed by Tecan across the desired concentration range with all wells normalized to a final 0.5% DMSO concentration. The plates were then then incubated at 37° C. under a humidified atmosphere of 5% CO2 for 1 h. Following this period, 5 μL of the 5 mg/mL nigericin stock solution was added to each of the appropriate wells and plates were centrifuged at 1000 rpm for 30 seconds. The plates were the immediately reintroduced to the incubator at 37° C. under a humidified atmosphere of 5% CO2 for 2 h. After this time, 35 μL/well of supernatant was collected and transferred into v-bottom plate and centrifuged at 1000 rpm for 1 minute. These supernatant aliquots were analyzed using an IL-Iβ detection kit as described below. If needed, the test samples could be snap frozen and stored at −80° C. until analyzed.
To prepare each ELISA plate, capture antibody (mAb Mt175) was diluted with PBS to a final concentration of […] and then 20 µL of this solution was added to each well of the ELISA plate.
Each plate was allowed to incubate overnight at 4° C. […]

[1] = Homo sapiens, THP-1, Table 3, LPS 25 ng/mL + nigericin, read-out: Activity (IC50 class)
[2] = Homo sapiens, THP-1, Table 4, LPS 25 ng/mL + nigericin, read-out: Activity (IC50)

Question: With `CC[C@@H]1CC1Oc1nn(CC(=O)Nc2ncc(F)cn2)c(=O)c2ccc(Br)cc12` (single isomer, unassigned) [Example 36, 2-[6-bromo-4-[cis-2-ethylcyclopropyl]oxy-1-oxophthalazin-2-yl]-N-(5-fluoropyrimidin-2-yl)acetamide] as the molecule, how does the IC50 (Table 3, LPS 25 ng/mL + nigericin, read-out: Activity (IC50 class)) read?
Answer: < 1000 nM

Question: What about the IC50 (Table 4, LPS 25 ng/mL + nigericin, read-out: Activity (IC50)) of the same molecule?
Answer: 397 nM

Question: Which IC50 [1] does the source give for `C[C@@H]1CC1Oc1nn(CC(=O)Nc2ncc(F)cn2)c(=O)c2ccc(Br)cc12` (stereo in doubt) [Example 52, 2-[6-bromo-4-[cis-2-methylcyclopropyl]oxy-1-oxophthalazin-2-yl]-N-(5-fluoropyrimidin-2-yl)acetamide] here?
Answer: < 1000 nM

Question: What about the IC50 [2] of the same molecule?
Answer: 924 nM

Question: Which IC50 [1] does the source give for `O=C(Cn1nc(OC2CC3(C2)CC(F)(F)C3)c2cc(Br)ccc2c1=O)Nc1ncc(F)cn1` [Example 1, 2-[6-bromo-4-(2,2-difluorospiro[3.3]heptan-6-yl)oxy-1-oxophthalazin-2-yl]-N-(5-fluoropyrimidin-2-yl)acetamide] here?
Answer: < 1000 nM

Question: And the IC50 [2]?
Answer: 10 nM

Question: Which results are given for `O=C(Cn1nc(OC2CC3(CC3)C2)c2cc(Br)ccc2c1=O)Nc1ncc(F)cn1` [Example 4, 2-(6-bromo-1-oxo-4-spiro[2.3]hexan-5-yloxyphthalazin-2-yl)-N-(5-fluoropyrimidin-2-yl)acetamide]?
Answer: IC50 [1]: < 1000 nM; IC50 [2]: 33 nM

Question: With `COc1nn(CC(=O)Nc2ncc(F)cn2)c(=O)c2ccc(C3(F)CC3)cc12` [Example 11, 2-[6-(1-fluorocyclopropyl)-4-methoxy-1-oxophthalazin-2-yl]-N-(5-fluoropyrimidin-2-yl)acetamide] as the molecule, how does the IC50 [1] read?
Answer: < 1000 nM

Question: What about the IC50 [2] of the same molecule?
Answer: 136 nM

Question: Which IC50 [1] does the source give for `O=C(Cn1nc(OC2CC2)c2cc(C3(F)CC3)ccc2c1=O)Nc1ncc(F)cn1` [Example 12, 2-[4-cyclopropyloxy-6-(1-fluorocyclopropyl)-1-oxophthalazin-2-yl]-N-(5-fluoropyrimidin-2-yl)acetamide] here?
Answer: < 1000 nM

Question: What about the IC50 [2] of the same molecule?
Answer: 152 nM

Question: Which results are given for `O=C(Cn1nc(OC2CC3(C2)CC(F)(F)C3)c2cc(C3(F)CC3)ccc2c1=O)Nc1ncc(F)cn1` [Example 15, 2-[4-(2,2-difluorospiro[3.3]heptan-6-yl)oxy-6-(1-fluorocyclopropyl)-1-oxophthalazin-2-yl]-N-(5-fluoropyrimidin-2-yl)acetamide]?
Answer: IC50 [1]: < 1000 nM; IC50 [2]: 19 nM

Question: How did the IC50 [1] turn out when `C[C@]1(O)C[C@@H](NC(=O)Cn2nc(OC3CC4(C3)CC(F)(F)C4)c3cc(Br)ccc3c2=O)C1` [Example 16, 2-[6-bromo-4-(2,2-difluorospiro[3.3]heptan-6-yl)oxy-1-oxophthalazin-2-yl]-N-(cis-3-hydroxy-3-methylcyclobutyl)acetamide] was run?
Answer: < 1000 nM

Question: What about the IC50 [2] of the same molecule?
Answer: 137 nM

Question: How did the IC50 [1] turn out when `C[C@]1(O)C[C@@H](NC(=O)Cn2nc(OC3CC3)c3cc(Br)ccc3c2=O)C1` [Example 23, 2-(6-bromo-4-cyclopropyloxy-1-oxophthalazin-2-yl)-N-(cis-3-hydroxy-3-methylcyclobutyl)acetamide] was run?
Answer: < 1000 nM

Question: And the IC50 [2]?
Answer: 312 nM

Question: `COc1nn(CC(=O)N[C@H]2C[C@@](C)(O)C2)c(=O)c2ccc(Br)cc12` [Example 24, 2-(6-bromo-4-methoxy-1-oxophthalazin-2-yl)-N-(cis-3-hydroxy-3-methylcyclobutyl)acetamide] was tested. Which IC50 [1] did it give?
Answer: < 1000 nM

Question: And the IC50 [2]?
Answer: 183 nM

Question: How did the IC50 [1] turn out when `O=C(Cn1nc(OC2CC2)c2cc(Br)ccc2c1=O)Nc1nc2ccccn2n1` [Example 27, 2-(6-bromo-4-cyclopropyloxy-1-oxophthalazin-2-yl)-N-([1,2,4]triazolo[1,5-a]pyridin-2-yl)acetamide] was run?
Answer: < 1000 nM

Question: What about the IC50 [2] of the same molecule?
Answer: 235 nM

Question: `O=C(Cn1nc(OC2CC2)c2cc(I)ccc2c1=O)Nc1ncc(F)cn1` [Example 28, 2-(4-cyclopropyloxy-6-iodo-1-oxophthalazin-2-yl)-N-(5-fluoropyrimidin-2-yl)acetamide] was tested. Which IC50 [1] did it give?
Answer: < 1000 nM

Question: What about the IC50 [2] of the same molecule?
Answer: 21 nM

Question: With `Cc1cnc(NC(=O)Cn2nc(OC3CC4(CC4)C3)c3cc(Br)ccc3c2=O)nc1` [Example 29, 2-(6-bromo-1-oxo-4-spiro[2.3]hexan-5-yloxyphthalazin-2-yl)-N-(5-methylpyrimidin-2-yl)acetamide] as the molecule, how does the IC50 [1] read?
Answer: < 1000 nM

Question: What about the IC50 [2] of the same molecule?
Answer: 26 nM

Question: `N#Cc1cnc(NC(=O)Cn2nc(OC3CC4(CC4)C3)c3cc(Br)ccc3c2=O)nc1` [Example 30, 2-(6-bromo-1-oxo-4-spiro[2.3]hexan-5-yloxyphthalazin-2-yl)-N-(5-cyanopyrimidin-2-yl)acetamide] was tested. Which IC50 [1] did it give?
Answer: < 1000 nM

Question: And the IC50 [2]?
Answer: 50 nM

Question: For `O=C(Cn1nc(OC2CC3(CC3)C2)c2c(F)c(C3CC3)ccc2c1=O)Nc1ncc(F)cn1` [Example 31, 2-(6-cyclopropyl-5-fluoro-1-oxo-4-spiro[2.3]hexan-5-yloxyphthalazin-2-yl)-N-(5-fluoropyrimidin-2-yl)acetamide], which IC50 [1] is on record?
Answer: < 1000 nM

Question: What about the IC50 [2] of the same molecule?
Answer: 66 nM

Question: `COc1nn(CC(=O)Nc2ncc(F)cn2)c(=O)c2ccc(C3CC3)c(F)c12` [Example 32, 2-(6-cyclopropyl-5-fluoro-4-methoxy-1-oxophthalazin-2-yl)-N-(5-fluoropyrimidin-2-yl)acetamide] was tested. Which IC50 [1] did it give?
Answer: < 1000 nM

Question: What about the IC50 [2] of the same molecule?
Answer: 183 nM

Question: `COc1nn(CC(=O)Nc2ncc(F)cn2)c(=O)c2ccc(C3CC3)c(OC)c12` [Example 33, 2-(6-cyclopropyl-4,5-dimethoxy-1-oxophthalazin-2-yl)-N-(5-fluoropyrimidin-2-yl)acetamide] was tested. Which IC50 [1] did it give?
Answer: < 1000 nM

Question: What about the IC50 [2] of the same molecule?
Answer: 625 nM

Question: Which results are given for `O=C(Cn1nc(OC2CC2)c2cc(Cl)ccc2c1=O)Nc1ncc(F)cn1` [Example 34, 2-(6-chloro-4-cyclopropyloxy-1-oxophthalazin-2-yl)-N-(5-fluoropyrimidin-2-yl)acetamide]?
Answer: IC50 [1]: < 1000 nM; IC50 [2]: 408 nM

Question: Which results are given for `O=C(Cn1nc(OC2CC2)c2cc(OC(F)F)ccc2c1=O)Nc1ncc(F)cn1` [Example 37, 2-[4-cyclopropyloxy-6-(difluoromethoxy)-1-oxophthalazin-2-yl]-N-(5-fluoropyrimidin-2-yl)acetamide]?
Answer: IC50 [1]: < 1000 nM; IC50 [2]: 424 nM

Question: Which results are given for `Cc1cnc(NC(=O)Cn2nc(OC3CC3)c3cc(Br)ccc3c2=O)nn1` [Example 38, 2-(6-bromo-4-cyclopropyloxy-1-oxophthalazin-2-yl)-N-(6-methyl-1,2,4-triazin-3-yl)acetamide]?
Answer: IC50 [1]: < 1000 nM; IC50 [2]: 444 nM

Question: `O=C(Cn1nc(OC2CC2)c2cc(C3CCC3)ccc2c1=O)Nc1ncc(F)cn1` [Example 39, 2-(6-cyclobutyl-4-cyclopropyloxy-1-oxophthalazin-2-yl)-N-(5-fluoropyrimidin-2-yl)acetamide] was tested. Which IC50 [1] did it give?
Answer: 1000 to 10000 nM

Question: What about the IC50 [2] of the same molecule?
Answer: 1120 nM

Question: What does the source list for `O=C(Cn1nc(OC2CC3(CCC3)C2)c2cc(Br)ccc2c1=O)Nc1ncc(F)cn1` [Example 40, 2-(6-bromo-1-oxo-4-spiro[3.3]heptan-2-yloxyphthalazin-2-yl)-N-(5-fluoropyrimidin-2-yl)acetamide]?
Answer: IC50 [1]: < 1000 nM; IC50 [2]: 17 nM

Question: `O=C(Cn1nc(OC2CC3(CC3)C2)c2cc(Br)ccc2c1=O)Nc1ncc(Cl)cn1` [Example 41, 2-(6-bromo-1-oxo-4-spiro[2.3]hexan-5-yloxyphthalazin-2-yl)-N-(5-chloropyrimidin-2-yl)acetamide] was tested. Which IC50 [1] did it give?
Answer: < 1000 nM

Question: What about the IC50 [2] of the same molecule?
Answer: 52 nM

Question: How did the IC50 [1] turn out when `O=C(Cn1nc(OC2CC(C(F)(F)F)C2)c2cc(Br)ccc2c1=O)Nc1ncc(F)cn1` (stereo not drawn) [Example 42, 2-[6-bromo-1-oxo-4-[3-(trifluoromethyl)cyclobutyl]oxyphthalazin-2-yl]-N-(5-fluoropyrimidin-2-yl)acetamide] was run?
Answer: < 1000 nM

Question: And the IC50 [2]?
Answer: 360 nM
